Here are results for 23 compounds from US20240116922A1, “IMIDAZO[1,2-A]PYRIDINE DERIVATIVES AS IRAK4 INHIBITORS AND THEIR USE IN THE TREATMENT OF DISEASE” (BIOGEN MA INC., priority 2020, published 2024).

For orientation: IC50 means the midpoint of a concentration-inhibition curve. A low value points to inhibition by little substance. For orientation: kinetic solubility means the concentration staying in solution when a stock, usually in DMSO, is diluted into the medium. Usually efflux ratio stands for the permeability from basolateral to apical divided by that in the opposite direction, in the common usage.

The target in one series is IRAK4 (Homo sapiens (Human), UniProt Q9NWZ3). The series can be described thus: IRAK4 MSD biochemical assay (2-hour 1 mM ATP). Conditions: 0.1 nM IRAK4, 1 mM ATP, 2 hour at room temperature.
A short description of series [1]: Kinetic solubility assay (CLND), pH 6.8. It counts as physicochemical. Conditions: aqueous buffer, kinetic from dmso stock; potassium phosphate buffer pH 6.8, 2% DMSO, 24 hours at ambient temperature.
The next series has as its target MDR1 (Homo sapiens (Human), UniProt P08183). The series can be described thus: in vitro. Conditions: MDCK-MDR1.

In brackets after ≈: the same amount, converted by molar mass. Where a name gives a salt, the structure may show the parent alone.

Chain of IRAK4 (Q9NWZ3 whole entry): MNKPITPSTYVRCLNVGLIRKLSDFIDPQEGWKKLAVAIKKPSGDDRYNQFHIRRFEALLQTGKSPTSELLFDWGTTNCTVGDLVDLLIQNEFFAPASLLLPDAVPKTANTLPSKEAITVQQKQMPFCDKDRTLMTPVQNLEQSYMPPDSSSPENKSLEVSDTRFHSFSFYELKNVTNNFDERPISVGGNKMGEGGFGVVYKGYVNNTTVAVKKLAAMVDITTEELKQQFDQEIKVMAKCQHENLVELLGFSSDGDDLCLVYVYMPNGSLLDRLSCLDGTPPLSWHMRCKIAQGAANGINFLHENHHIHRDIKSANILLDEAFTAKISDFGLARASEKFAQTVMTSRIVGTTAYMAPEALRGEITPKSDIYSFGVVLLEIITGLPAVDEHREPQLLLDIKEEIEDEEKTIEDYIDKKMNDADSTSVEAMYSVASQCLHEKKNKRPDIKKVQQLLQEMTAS
Chain of MDR1 (P08183 whole entry): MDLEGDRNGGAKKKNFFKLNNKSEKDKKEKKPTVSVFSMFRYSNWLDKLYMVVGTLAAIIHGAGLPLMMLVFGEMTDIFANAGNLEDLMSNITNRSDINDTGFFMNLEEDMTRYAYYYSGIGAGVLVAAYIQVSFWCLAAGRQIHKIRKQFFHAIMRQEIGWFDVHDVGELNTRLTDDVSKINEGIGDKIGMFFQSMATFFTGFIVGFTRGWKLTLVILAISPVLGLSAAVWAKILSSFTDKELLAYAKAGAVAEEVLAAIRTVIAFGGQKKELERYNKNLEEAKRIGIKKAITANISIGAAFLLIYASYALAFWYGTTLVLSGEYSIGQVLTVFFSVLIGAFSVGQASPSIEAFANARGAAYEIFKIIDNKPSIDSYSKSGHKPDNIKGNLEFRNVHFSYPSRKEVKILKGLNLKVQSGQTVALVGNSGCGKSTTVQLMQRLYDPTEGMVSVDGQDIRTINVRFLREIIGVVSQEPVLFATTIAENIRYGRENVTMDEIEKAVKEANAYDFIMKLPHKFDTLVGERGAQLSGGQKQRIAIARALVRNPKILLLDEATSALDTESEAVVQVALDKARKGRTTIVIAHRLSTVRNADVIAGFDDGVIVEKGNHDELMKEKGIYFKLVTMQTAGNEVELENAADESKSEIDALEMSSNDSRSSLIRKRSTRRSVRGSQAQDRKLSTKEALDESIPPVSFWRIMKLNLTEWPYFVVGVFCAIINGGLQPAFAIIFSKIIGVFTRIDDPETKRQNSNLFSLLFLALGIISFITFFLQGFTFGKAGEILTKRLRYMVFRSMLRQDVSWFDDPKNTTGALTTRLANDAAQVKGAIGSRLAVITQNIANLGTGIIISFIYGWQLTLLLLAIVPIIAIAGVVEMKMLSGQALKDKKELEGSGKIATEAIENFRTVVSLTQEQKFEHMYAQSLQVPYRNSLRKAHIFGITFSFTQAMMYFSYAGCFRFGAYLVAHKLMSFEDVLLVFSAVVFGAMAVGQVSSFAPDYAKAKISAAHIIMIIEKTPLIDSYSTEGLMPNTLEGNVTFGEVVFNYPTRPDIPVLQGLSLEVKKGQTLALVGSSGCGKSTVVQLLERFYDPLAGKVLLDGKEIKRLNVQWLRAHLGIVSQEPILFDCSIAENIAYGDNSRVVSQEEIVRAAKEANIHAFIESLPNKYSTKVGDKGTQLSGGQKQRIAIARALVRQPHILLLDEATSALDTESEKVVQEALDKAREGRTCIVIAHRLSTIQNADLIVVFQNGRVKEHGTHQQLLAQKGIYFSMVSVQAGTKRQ
Experimental for IRAK4: The 2-hour 1 mM ATP Biochemical Assay employed a MesoScale Detection (MSD) format.
The activity was quenched with 11 μl of 70 mM EDTA, pH 8.
To detect the phosphorylated biotinylated peptide substrate, 30 μl of the quenched reaction mixture was added to equivalent wells of a 384 well streptavidin coated MesoScale plate (Meso Scale Discovery #L21SA-1). After a 1 hour incubation of the plate for 1 hour at room temperature with gentle mixing, the plate wells were washed 3 times with 50 mM Tris, pH 7.5, 150 mM NaCl, 0.02% Tween-20.
A 25 μl volume of 1:500 anti-P-Threonine Rabbit polyclonal Antibody plus 1:500 Goat-anti-Rabbit Sulfo Tag Antibody (Meso Scale Discovery R32AB-1) in 50 mM Tris, pH 7.5, 150 mM NaCl, 0.02% Tween-20 plus 2% BSA was then added to each well. After a 1-hour incubation of the plate for 1 hour at room temperature with gentle mixing, the plate wells were washed, 3 times with 50 mM Tris, pH 7.5, 150 mM NaCl, 0.02% Tween-20.

Regarding `C[C@@H](Oc1cc2nc(C34COC(C)(C3)C4)cn2cc1C(=O)Nc1cccn(C2C[C@H]2F)c1=O)C(F)F` (some centres unmarked) [Example 185], the 50% inhibitory concentration (IC50) on IRAK4 was determined as 0.1 nM. The compound also came in with a kinetic solubility at 24 h in series [1] of 73.2 µg/mL (≈ 146 µM). The efflux ratio at 120 min, 1 μM at MDR1 was determined as 21.8.

For `CC(Oc1cc2nc(C34COC(C)(C3)C4)cn2cc1C(=O)Nc1cccn(C2CC2)c1=O)C(F)F` [Example 102, (S)—N-(1-cyclopropyl-2-oxo-1,2-dihydropyridin-3-yl)-7-((1,1-difluoropropan-2-yl)oxy)-2-(1-methyl-2-oxabicyclo[2.1.1]hexan-4-yl)imidazo[1,2-a]pyridine-6-carboxamide], on IRAK4, half-maximal inhibition (IC50) was put at 0.3 nM. In addition, in series [1], the kinetic solubility at 24 h was 69.3 µg/mL (≈ 143 µM). The efflux ratio at 120 min, 1 μM at MDR1 turned out to be 10.8.

On IRAK4, `O=C(Nc1cccn(C2CC2)c1=O)c1cn2cc(C34COC(C3)C4)nc2cc1OC1CCC1` [Example 37, 2-(2-oxabicyclo[2.1.1]hexan-4-yl)-7-cyclobutoxy-N-(1-cyclopropyl-2-oxo-1,2-dihydropyridin-3-yl)imidazo[1,2-a]pyridine-6-carboxamide] gave a concentration for half-maximal inhibition (IC50) of 3.1 nM. The same compound yielded a solubility (kinetic) at 24 h in series [1] of 64.4 µg/mL (≈ 144 µM). The efflux ratio at 120 min, 1 μM at MDR1 was found to be 10.2.

Consider `C[C@@H]1C[C@@H]1n1cccc(NC(=O)c2cn3cc(C45COC(C)(C4)C5)nc3nc2OC2CCC2)c1=O` [Example 188, 7-cyclobutoxy-2-(1-methyl-2-oxabicyclo[2.1.1]hexan-4-yl)-N-(1-((1S,2R)-2-methylcyclopropyl)-2-oxo-1,2-dihydropyridin-3-yl)imidazo[1,2-a]pyrimidine-6-carboxamide trifluoroacetate], for which the IC50 at IRAK4 stood at 0.8 nM. In addition, the kinetic solubility at 24 h in series [1] worked out at 49.7 µg/mL. In addition, the efflux ratio at 120 min, 1 μM at MDR1 turned out to be 4.4.

Compound `CC(C)Oc1cc2nc([C@@]34CC[C@@](C)(C3)OC4)cn2cc1C(=O)Nc1cccn(C2C[C@H]2C)c1=O` (stereo partly drawn) [Example 98, trans-7-isopropoxy-2-((1S,4R)-1-methyl-2-oxabicyclo[2.2.1]heptan-4-yl)-N-(1-(2-methylcyclopropyl)-2-oxo-1,2-dihydropyridin-3-yl)imidazo[1,2-a]pyridine-6-carboxamide] showed an IC50 on IRAK4 of 0.7 nM. The kinetic solubility at 24 h in series [1] stood at 89.7 µg/mL (≈ 188 µM). On MDR1, the efflux ratio at 120 min, 1 μM was determined as 2.1.

In the case of `CC(C)Oc1cc2nc([C@@]34CC[C@@](C)(C3)OC4)cn2cc1C(=O)Nc1cccn([C@@H]2C[C@H]2C)c1=O` (single isomer, unassigned) [Example 191], at IRAK4, it took 0.4 nM to reach half-maximal inhibition (IC50). The same compound registered a kinetic solubility at 24 h in series [1] of 48.5 µg/mL (≈ 102 µM). In addition, the efflux ratio at 120 min, 1 μM at MDR1 is 1.5.

With `CC[C@@H](C)Oc1nc2nc([C@@]34CC[C@@](C)(C3)OC4)cn2cc1C(=O)Nc1cccn(C2CC2)c1=O` [Example 48, 7-((R)-sec-butoxy)-N-(1-cyclopropyl-2-oxo-1,2-dihydropyridin-3-yl)-2-((1S,4R)-1-methyl-2-oxabicyclo[2.2.1]heptan-4-yl)imidazo[1,2-a]pyrimidine-6-carboxamide], the IC50 on IRAK4 is 0.8 nM. The solubility (kinetic) at 24 h in series [1] came out at 63.2 µg/mL (≈ 132 µM). On MDR1, the efflux ratio at 120 min, 1 μM stood at 3.2.

`CC12CC(c3cn4cc(C(=O)Nc5cccn([C@@H]6C[C@@H]6F)c5=O)c(OC5CCC5)cc4n3)(CO1)C2` (racemic) [Example 85, (rac)-Cis-7-cyclobutoxy-N-(1-(2-fluorocyclopropyl)-2-oxo-1,2-dihydropyridin-3-yl)-2-(1-methyl-2-oxabicyclo[2.1.1]hexan-4-yl)imidazo[1,2-a]pyridine-6-carboxamide] had a concentration for half-maximal inhibition (IC50) on IRAK4 of 0.6 nM. The solubility (kinetic) at 24 h in series [1] worked out at 44.5 µg/mL (≈ 93 µM). The efflux ratio at 120 min, 1 μM at MDR1 is 7.7.

Regarding `CC(C)Oc1nc2nc([C@@]34CC[C@@](C)(C3)OC4)cn2cc1C(=O)Nc1ccn(C)n1` (single isomer, unassigned) [Comparator 4C, reference compound], half-maximal inhibition at IRAK4 (IC50) was put at 2.5 nM. For the same compound, the solubility (kinetic) at 24 h in series [1] turned out to be 51.3 µg/mL (≈ 125 µM). Also, on MDR1, the efflux ratio at 120 min, 1 μM was determined as 4.6.

For the compound `CC(C)Oc1nc2nc([C@]34CC[C@](C)(C3)OC4)cn2cc1C(=O)Nc1cccn([C@H]2CC23CC3)c1=O` (single isomer, unassigned) [Example 152], at IRAK4, half-maximal inhibition (IC50) required 0.8 nM. Further, the kinetic solubility at 24 h in series [1] was 24.9 µg/mL (≈ 50.9 µM). Moreover, at MDR1, the efflux ratio at 120 min, 1 μM turned out to be 1.4.

`CC(C)Oc1cc2nc([C@@H]3COCCO3)cn2cc1C(=O)Nc1cccn(C2CC2)c1=O` (single isomer, unassigned) [Example 69] yielded an IC50 against IRAK4 of 0.3 nM. Further, the kinetic solubility at 24 h in series [1] came out at 6.1 µg/mL (≈ 13.9 µM). For the same compound, the efflux ratio at 120 min, 1 μM at MDR1 is 4.7.

On to `CC12CC(c3cn4cc(C(=O)Nc5cccn(C6C[C@@H]6F)c5=O)c(OC5CCC5)nc4n3)(CO1)C2` (mixture of isomers) [Example 103, (rac)-Cis-7-cyclobutoxy-N-(1-(2-fluorocyclopropyl)-2-oxo-1,2-dihydropyridin-3-yl)-2-(1-methyl-2-oxabicyclo[2.1.1]hexan-4-yl)imidazo[1,2-a]pyrimidine-6-carboxamide], for which the IC50 at IRAK4 amounted to 0.4 nM. For the same compound, the kinetic solubility at 24 h in series [1] turned out to be 58.8 µg/mL (≈ 123 µM). Also, the efflux ratio at 120 min, 1 μM on MDR1 turned out to be 12.8.

Consider `CC[C@H](C)Oc1nc2nc(C34COC(C)(C3)C4)cn2cc1C(=O)Nc1cccn([C@H]2C[C@H]2F)c1=O` (single isomer, unassigned) [Example 60], for which the half-maximal inhibitory concentration (IC50) at IRAK4 stood at 0.2 nM. The same compound registered a solubility (kinetic) at 24 h in series [1] of 55.5 µg/mL (≈ 115 µM). The efflux ratio at 120 min, 1 μM at MDR1 stood at 9.

`CC12CC(c3cn4cc(C(=O)Nc5cccn([C@@H]6C[C@@H]6F)c5=O)c(OC5CC5)cc4n3)(CO1)C2` (racemic) [Example 105, (rac)-Cis-7-cyclopropoxy-N-(1-(2-fluorocyclopropyl)-2-oxo-1,2-dihydropyridin-3-yl)-2-(1-methyl-2-oxabicyclo[2.1.1]hexan-4-yl)imidazo[1,2-a]pyridine-6-carboxamide] registered an IC50 against IRAK4 of 0.7 nM. Besides, in series [1], the solubility (kinetic) at 24 h stood at 38.7 µg/mL (≈ 83.3 µM). For the same compound, the efflux ratio at 120 min, 1 μM at MDR1 amounted to 15.8.

Compound `CC(C)Oc1cc2nc(C34COC(C)(C3)C4)cn2cc1C(=O)Nc1cccn([C@@H]2C[C@H]2C)c1=O` [Example 139, 7-isopropoxy-2-(1-methyl-2-oxabicyclo[2.1.1]hexan-4-yl)-N-(1-((1R,2R)-2-methylcyclopropyl)-2-oxo-1,2-dihydropyridin-3-yl)imidazo[1,2-a]pyridine-6-carboxamide] showed an IC50 at IRAK4 of 0.5 nM. The compound further showed a kinetic solubility at 24 h in series [1] of 38.4 µg/mL (≈ 83 µM). For the same compound, the efflux ratio at 120 min, 1 μM at MDR1 was 3.

On IRAK4, `C[C@@H](CF)Oc1cc2nc(C34CCC(C)(C3)OC4)cn2cc1C(=O)Nc1cccn(C2CC2)c1=O` (mixture of isomers) [Example 30, N-(1-cyclopropyl-2-oxo-1,2-dihydropyridin-3-yl)-7-(((S)-1-fluoropropan-2-yl)oxy)-2-(1-methyl-2-oxabicyclo[2.2.1]heptan-4-yl)imidazo[1,2-a]pyridine-6-carboxamide] registered an IC50 of 0.2 nM. The same compound had a solubility (kinetic) at 24 h in series [1] of 46.5 µg/mL. Besides, the efflux ratio at 120 min, 1 μM at MDR1 turned out to be 11.1.

Compound `CCC(C)Oc1cc2nc([C@@]34CC[C@@](C)(C3)OC4)cn2cc1C(=O)Nc1cccn(C2CC2)c1=O` (stereo partly drawn) [Example 20, 7-(sec-butoxy)-N-(1-cyclopropyl-2-oxo-1,2-dihydropyridin-3-yl)-2-((1S,4R)-1-methyl-2-oxabicyclo[2.2.1]heptan-4-yl)imidazo[1,2-a]pyridine-6-carboxamide] yielded an IC50 against IRAK4 of 0.7 nM. For the same compound, the solubility (kinetic) at 24 h in series [1] is 68.1 µg/mL (≈ 143 µM). For the same compound, at MDR1, the efflux ratio at 120 min, 1 μM was determined as 2.8.

In the case of `CC12CC(c3cn4cc(C(=O)Nc5cccn(C6CC6)c5=O)c(OC5CC5)cc4n3)(CO1)C2` [Example 104, 7-cyclopropoxy-N-(1-cyclopropyl-2-oxo-1,2-dihydropyridin-3-yl)-2-(1-methyl-2-oxabicyclo[2.1.1]hexan-4-yl)imidazo[1,2-a]pyridine-6-carboxamide], the concentration for half-maximal inhibition (IC50) on IRAK4 is 1.7 nM. The solubility (kinetic) at 24 h in series [1] came out at 74.5 µg/mL (≈ 167 µM). Also, the efflux ratio at 120 min, 1 μM at MDR1 came out at 4.3.

At IRAK4, `CC12CC(c3cn4cc(C(=O)Nc5cccn([C@H]6C[C@H]6F)c5=O)c(OC5CC5)cc4n3)(CO1)C2` [Example 175, 7-cyclopropoxy-N-(1-((1S,2R)-2-fluorocyclopropyl)-2-oxo-1,2-dihydropyridin-3-yl)-2-(1-methyl-2-oxabicyclo[2.1.1]hexan-4-yl)imidazo[1,2-a]pyridine-6-carboxamide] gave an IC50 of 0.2 nM. The compound also yielded a kinetic solubility at 24 h in series [1] of 43 µg/mL (≈ 92.6 µM). At MDR1, the efflux ratio at 120 min, 1 μM worked out at 8.9.

With `CC(C)Oc1nc2nc([C@@]34CC[C@@](C)(C3)OC4)cn2cc1C(=O)Nc1cccn([C@H]2CC23CC3)c1=O` (single isomer, unassigned) [Example 150], at IRAK4, inhibition was half-maximal at 2.7 nM (IC50). Also, the efflux ratio at 120 min, 1 μM on MDR1 worked out at 1.

In turn, `CC[C@@H](C)Oc1nc2nc(C34CCC(CF)(C3)OC4)cn2cc1C(=O)Nc1cccn(C2CC2)c1=O` (stereo partly drawn) [Example 55, 7-((R)-sec-butoxy)-N-(1-cyclopropyl-2-oxo-1,2-dihydropyridin-3-yl)-2-(1-(fluoromethyl)-2-oxabicyclo[2.2.1]heptan-4-yl)imidazo[1,2-a]pyrimidine-6-carboxamide] showed an IC50 on IRAK4 of 1.1 nM. The efflux ratio at 120 min, 1 μM at MDR1 was found to be 4.7.

With `CC(C)Oc1cc2nc([C@@]34CC[C@@](C)(C3)OC4)cn2cc1C(=O)Nc1cccn([C@H]2C[C@H]2F)c1=O` (single isomer, unassigned) [Example 169], at IRAK4, the IC50 came to 0.3 nM. Also, at MDR1, the efflux ratio at 120 min, 1 μM is 10.4.

Regarding `CC[C@@H](C)Oc1nc2nc(C34COC(C)(C3)C4)cn2cc1C(=O)Nc1cccn([C@@H]2C[C@@H]2F)c1=O` (mixture of isomers) [Example 41, 7-((R)-sec-butoxy)-N-(1-(cis-2-fluorocyclopropyl)-2-oxo-1,2-dihydropyridin-3-yl)-2-(1-methyl-2-oxabicyclo[2.1.1]hexan-4-yl)imidazo[1,2-a]pyrimidine-6-carboxamide], the IC50 against IRAK4 was determined as 0.6 nM. Moreover, the efflux ratio at 120 min, 1 μM at MDR1 was 9.1.
